Results as given in PMC6195508, “Studies on the metabolism and degradation of vancomycin in simulated in vitro and aquatic environment by UHPLC-Triple-TOF-MS/MS” (Scientific Reports, 2018).

What was measured:
[1] = Incubation of vancomycin in activated (experimental) and inactivated (control) rat liver microsomes; type: in vitro ADME; settings: vancomycin 60 mg/L, 37 °C, UHPLC-Triple-TOF-MS/MS
Description: (§1) UHPLC-Triple-TOF-MS/MS analysis was performed on a Shimadzu LC-30A UHPLC system (Kyoto, Japan) consisting of an autosampler (SIL-30AC), a binary pump (LC-30AD) and a column oven (CTO-30A) connected to an AB SCIEX triple TOF 5600 MS/MS system (Redwood, USA) equipped with Duo-Spray ion source. The compound separation was conducted with a Poroshell 120 EC-C18 (2.1 × 150 mm, 2.7 μm, Agilent InfinityLab, USA) chromatographic column maintained at 40 °C. The mobile phases A (0.1% aqueous formic acid) and B (acetonitrile) were used to optimized the gradient elution program, which was operated at follows: 0–1 min, 5% B; 1–9 min, 5–10% B; 9–14 min, 10–45% B; 14–20 min, 45–90% B; 20–25 min, 90% B for washing the column; 25–25.1 min, 90–5% B; 25.1–30 min, 5% B for equilibrating the column. The constant flow rate was 0.4 mL/min, and the injection volume was 5 µL.
(§2) The full-scan MS spectra and MS/MS spectra data were obtained in positive electrospray ionization (ESI) mode by Analyst TF 1.6 software (AB Sciex, USA). Full scan mode was applied, the parent ions scan ranged from m/z 100 to 2000 Da with a 200 ms accumulation time and the product ions scan range from 100 to 1500 Da with a 70 ms accumulation time. Simultaneously, the calibration delivery system calibrated mass numbers by every five samples to acquire exact mass of ions. The running time of data independent acquisition (DIA) was 20 min. […]

[2] = Degradation of vancomycin in phosphate buffer saline (PBS system); type: physicochemical; settings: chemical stability in phosphate buffer saline; vancomycin 60 mg/L; 37 °C, constant temperature oscillator, sampled every 24 h for 10 days; one sample per time point; UHPLC-Triple-TOF-MS/MS, ESI+
Description: as §1, §2

[3] = Degradation of vancomycin in pure water (pure water system); type: physicochemical; settings: chemical stability in pure (Milli-Q) water; vancomycin 60 mg/L; 37 °C, constant temperature oscillator, sampled every 24 h for 10 days; one sample per time point; UHPLC-Triple-TOF-MS/MS, ESI+
Description: as §1, §2

## CN[C@H](CC(C)C)C(=O)N[C@H]1C(=O)N[C@@H](CC(N)=O)C(=O)N[C@H]2C(=O)N[C@H]3C(=O)N[C@H](C(=O)N[C@H](C(=O)O)c4cc(O)cc(O)c4-c4cc3ccc4O)[C@H](O)c3ccc(c(Cl)c3)Oc3cc2cc(c3O[C@@H]2O[C@H](CO)[C@@H](O)[C@H](O)[C@H]2O[C@H]2C[C@](C)(N)[C@H](O)[C@H](C)O2)Oc2ccc(cc2Cl)[C@H]1O [vancomycin, Vancomycin]
[1]; male, Sprague-Dawley rat liver microsomes 1 mg/mL protein (activated with 1 mmol/L NADPH, or inactivated), PBS, MgCl2 3.3 mmol/L, constant temperature oscillator, pre-heated 5 min, sampled every 24 h for 10 days, one sample per time point, ESI+, read-out: time to 50% loss of vancomycin in rat liver microsomes (converted)
  half-life at 60 mg/L: ~144 h
[1]; similar degradation rate in activated (NADPH 1 mmol/L) and inactivated rat liver microsomes, 1 mg/mL protein
  metabolism by liver microsomal cytochrome P450 enzymes (activated versus inactivated microsomes): not metabolized in the liver
[2]
  time to 50% loss of vancomycin in PBS: approximately 9 days
[3]
  time to 50% loss of vancomycin in water: over 10 days
